In patent publication US12637471B2, “Heterocyclic compounds, compositions, methods of preparation and uses thereof” (Organon R&D Finland Ltd, priority 2021, dated 2026) one finds inhibition data, which are given here for 20 compounds.

Assay type in all cases: biochemical
The target of experiment [1] is T1, Recombinant human AKR1C3 (17β-HSD5) protein (Homo sapiens, UniProt P42330).
T1 construct: made in house; host or cells: E. coli
T1 sequence (P42330 1-323): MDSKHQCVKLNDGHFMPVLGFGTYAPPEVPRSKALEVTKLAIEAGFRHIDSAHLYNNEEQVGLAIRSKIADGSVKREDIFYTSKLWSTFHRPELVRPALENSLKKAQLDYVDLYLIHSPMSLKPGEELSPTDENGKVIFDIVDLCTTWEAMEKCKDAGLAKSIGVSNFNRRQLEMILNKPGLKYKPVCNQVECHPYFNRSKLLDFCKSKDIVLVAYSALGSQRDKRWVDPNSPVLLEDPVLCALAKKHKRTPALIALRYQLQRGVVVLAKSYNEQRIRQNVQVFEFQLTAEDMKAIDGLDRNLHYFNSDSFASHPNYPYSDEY
Briefly: Inhibition of AKR1C3 (17β-hydroxysteroid dehydrogenase type 5) enzyme, fluorescence assay. As to conditions: inhibitor at 500 nM. The gist of the method: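 Percent inhibition at 500 nM compound, derived from substrate conversion; product alcohol measured by fluorescence (ex 420, em 510 nm) against a 1 μM–10 nM standard curve. Reaction: 27 nM recombinant AKR1C3, 1 μM ketone substrate, 1 mM NADPH, phosphate/EDTA buffer pH 7.4, 1% DMSO, RT for 60–120 min.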

Experiment [2] has as its target T2, 17β-Hydroxysteroid Dehydrogenase Type 2 Enzyme (17β-HSD2) (Homo sapiens, UniProt P37059).
T2 construct: made in house; host or cells: Sf-9 insect cells (baculovirus)
T2 sequence (P37059 1-387): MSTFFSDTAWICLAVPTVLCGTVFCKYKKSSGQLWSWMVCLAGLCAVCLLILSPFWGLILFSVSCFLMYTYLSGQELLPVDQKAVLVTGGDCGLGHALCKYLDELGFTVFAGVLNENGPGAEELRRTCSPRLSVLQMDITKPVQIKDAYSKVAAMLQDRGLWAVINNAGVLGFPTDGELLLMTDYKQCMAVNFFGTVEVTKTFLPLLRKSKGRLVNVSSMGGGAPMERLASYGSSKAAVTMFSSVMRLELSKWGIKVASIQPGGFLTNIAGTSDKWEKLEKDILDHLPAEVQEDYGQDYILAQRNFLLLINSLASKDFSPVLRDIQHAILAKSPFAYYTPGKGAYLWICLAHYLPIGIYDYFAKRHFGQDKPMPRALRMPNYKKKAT
The experiment is described as follows: Inhibition of the 17β-hydroxysteroid dehydrogenase type 2 enzyme, 3H-testosterone conversion. Conditions: inhibitor at 10 μM. The procedure, abridged:
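Single-point screen at 10 μM inhibitor, 1% DMSO: Sf-9-expressed human enzyme (105 nM), NAD 1 mM, ³H-labelled testosterone 56.25 nM, pH 8.5 phosphate/EDTA buffer, 30 min, room temperature. After TCA quench, substrate and product radioactivity quantified by UPLC with scintillation detection; inhibition percent from conversion.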

Experiment [3] has as its target T3, Recombinant human aldo-keto reductase family 1 member C2 (AKR1C2) protein (Homo sapiens, UniProt P52895).
T3 construct: made in house; host or cells: Sf-9 insect cells (baculovirus)
T3 sequence (P52895 1-323): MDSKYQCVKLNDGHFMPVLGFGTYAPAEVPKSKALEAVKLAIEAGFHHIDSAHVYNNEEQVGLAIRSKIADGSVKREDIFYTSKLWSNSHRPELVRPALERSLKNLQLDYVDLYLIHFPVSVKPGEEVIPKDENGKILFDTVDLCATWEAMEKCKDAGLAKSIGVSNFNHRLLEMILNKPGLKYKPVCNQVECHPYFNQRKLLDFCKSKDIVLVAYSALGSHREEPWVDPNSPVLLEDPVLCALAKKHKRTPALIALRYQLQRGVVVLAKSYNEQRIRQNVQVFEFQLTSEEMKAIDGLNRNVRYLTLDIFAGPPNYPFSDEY
The experiment is described as follows: Inhibition of the aldo-keto reductase family 1 member C2, 3H-dihydrotestosterone conversion. Conditions: inhibitor at 10 μM. The procedure, abridged:
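Single-point screen at 10 μM inhibitor, 1% DMSO: [3H]DHT (6.25 nM) reduction to 3α-diol by baculovirus-made AKR1C2 (13.6 nM), pH 7.4 phosphate buffer, 1 mM NADPH, 37 °C for 45 min. Radio-UPLC quantified product versus substrate to give percent inhibition.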

`N#CC(=C1CCN(C(=O)N2CCc3[nH]ncc3C2)CC1)c1cccc2cn[nH]c12` [Compound 71, 2-(1H-indazol-7-yl)-2-(1-(4,5,6,7-tetrahydro-1H-pyrazolo[4,3-c]pyridine-5-carbonyl)piperidin-4-ylidene)acetonitrile]: the inhibition at 0.5 µM in experiment [1] came to 99%. Besides, the inhibition at 10 µM in experiment [2] is 29%; in experiment [3], 12%.

Turning to `N#CC(=C1CCN(C(=O)N2CCn3cncc3C2)CC1)c1cccc2cn[nH]c12` [Compound 72, 2-(1H-indazol-7-yl)-2-(1-(5,6,7,8-tetrahydroimidazo[1,5-a]pyrazine-7-carbonyl)piperidin-4-ylidene)acetonitrile], the inhibition at 0.5 µM in experiment [1] turned out to be 98%. Further, the values for the inhibition at 10 µM in experiment [2] and in experiment [3] were 26% and 9%, respectively.

With `COCC1CCN(C(=O)N2CCC(=C(C#N)c3ccc(F)cc3F)CC2)CC1` [Compound 73, 2-(2,4-difluorophenyl)-2-(1-(4-(methoxymethyl)piperidine-1-carbonyl)piperidin-4-ylidene)acetonitrile], in experiment [1], the inhibition at 0.5 µM came to 92%. For the same compound, the inhibition at 10 µM in experiment [2] came to 21%; in experiment [3], 19%.

For the compound `N#CC(=C1CCN(C(=O)N2CCC(CO)CC2)CC1)c1ccc(Cl)cc1` [Compound 74, 2-(4-chlorophenyl)-2-(1-(4-(hydroxymethyl)piperidine-1-carbonyl)piperidin-4-ylidene)acetonitrile], the inhibition at 0.5 µM in experiment [1] amounted to 98%. Further, the values for the inhibition at 10 µM in experiment [2] and in experiment [3] were 17% and 9%, respectively.

With `COCC1CCN(C(=O)N2CCC(=C(C#N)c3ccc(Cl)s3)CC2)CC1` [Compound 75, 2-(5-chlorothiophen-2-yl)-2-(1-(4-(methoxymethyl)piperidine-1-carbonyl)piperidin-4-ylidene)acetonitrile], in experiment [1], the inhibition at 0.5 µM is 94%. The values for the inhibition at 10 µM in experiment [2] and in experiment [3] were 23% and 13%, respectively.

In the case of `N#CC(=C1CCN(C(=O)N2CCC(CO)CC2)CC1)c1ccc(C(F)(F)F)cc1` [Compound 76, 2-(1-(4-(hydroxymethyl)piperidine-1-carbonyl)piperidin-4-ylidene)-2-(4-(trifluoromethyl)phenyl)acetonitrile], the inhibition at 0.5 µM in experiment [1] was determined as 99%. The inhibition at 10 µM in experiment [2] is 20%; in experiment [3], 6%.

Take `N#CC(=C1CCN(C(=O)N2CCC(S(N)(=O)=O)CC2)CC1)c1ccc(Cl)s1` [Compound 77, 1-(4-((5-chlorothiophen-2-yl)(cyano)methylene)piperidine-1-carbonyl)piperidine-4-sulfonamide]: the inhibition at 0.5 µM in experiment [1] was 96%. Also, the inhibition at 10 µM in experiment [2] turned out to be 19%; in experiment [3], 24%.

Take `COC1CCN(C(=O)N2CCC(=C(C#N)c3ccc(Cl)s3)CC2)CC1` [Compound 78, 2-(5-chlorothiophen-2-yl)-2-(1-(4-methoxypiperidine-1-carbonyl)piperidin-4-ylidene)acetonitrile]: the inhibition at 0.5 µM in experiment [1] turned out to be 99%. Also, the results for the inhibition at 10 µM in experiment [2] and in experiment [3] were 27% and 15%, respectively.

On to `COC1CCN(C(=O)N2CCC(=C(C#N)c3ccc(Cl)cc3)CC2)CC1` [Compound 79, 2-(4-chlorophenyl)-2-(1-(4-methoxypiperidine-1-carbonyl)piperidin-4-ylidene)acetonitrile], for which the inhibition at 0.5 µM in experiment [1] amounted to 99%. Besides, the inhibition at 10 µM in experiment [2] worked out at 10%; in experiment [3] it was 6%.

For the compound `N#CC(=C1CCN(C(=O)N2CCC(O)CC2)CC1)c1cccc(Cl)c1` [Compound 80, 2-(3-chlorophenyl)-2-(1-(4-hydroxypiperidine-1-carbonyl)piperidin-4-ylidene)acetonitrile], the inhibition at 0.5 µM in experiment [1] was 99%. Further, the inhibition at 10 µM worked out at 12% in experiment [2] and 7% in experiment [3].

For `COC1CCN(C(=O)N2CCC(=C(C#N)c3ccc(Cl)cn3)CC2)CC1` [Compound 81, 2-(5-chloropyridin-2-yl)-2-(1-(4-methoxypiperidine-1-carbonyl)piperidin-4-ylidene)acetonitrile], the inhibition at 0.5 µM in experiment [1] came to 95%. Further, the inhibition at 10 µM is 10% in experiment [2] and -7% in experiment [3].

`COC[C@@H]1CCCN1C(=O)N1CCC(=C(C#N)c2ccc(Cl)cc2)CC1` [Compound 82, (S)-2-(4-chlorophenyl)-2-(1-(2-(methoxymethyl)pyrrolidine-1-carbonyl)piperidin-4-ylidene)acetonitrile]: in experiment [1], the inhibition at 0.5 µM turned out to be 100%. Further, the results for the inhibition at 10 µM in experiment [2] and in experiment [3] were 28% and 3%, respectively.

As for `N#CC(=C1CCN(C(=O)N2CCc3nocc3C2)CC1)c1ccc(F)cn1` [Compound 84, 2-(5-fluoropyridin-2-yl)-2-(1-(4,5,6,7-tetrahydroisoxazolo[4,3-c]pyridine-5-carbonyl)piperidin-4-ylidene)acetonitrile], the inhibition at 0.5 µM in experiment [1] came to 98%. Also, the values for the inhibition at 10 µM in experiment [2] and in experiment [3] were 23% and 6%, respectively.

Consider `N#CC(=C1CCN(C(=O)N2CC(CO)C2)CC1)c1ccc(F)cc1` [Compound 85, 2-(4-fluorophenyl)-2-(1-(3-(hydroxymethyl)azetidine-1-carbonyl)piperidin-4-ylidene)acetonitrile], for which the inhibition at 0.5 µM in experiment [1] was determined as 72%. The inhibition at 10 µM in experiment [2] amounted to 27%; in experiment [3], 9%.

Regarding `N#CC(=C1CCN(C(=O)N2CCC(O)CC2)CC1)c1cncc(Cl)c1` [Compound 86, 2-(5-chloropyridin-3-yl)-2-(1-(4-hydroxypiperidine-1-carbonyl)piperidin-4-ylidene)acetonitrile], in experiment [1], the inhibition at 0.5 µM is 80%. Moreover, the inhibition at 10 µM in experiment [2] is 27%; in experiment [3] it was 0%.

`N#CC(=C1CCN(C(=O)N2CCc3nocc3C2)CC1)c1ccc(C(F)(F)F)cc1` [Compound 87, 2-(1-(4,5,6,7-tetrahydroisoxazolo[4,3-c]pyridine-5-carbonyl)piperidin-4-ylidene)-2-(4-(trifluoromethyl)phenyl)acetonitrile]: the inhibition at 0.5 µM in experiment [1] was 99%. Moreover, the results for the inhibition at 10 µM in experiment [2] and in experiment [3] were 23% and 31%, respectively.

Regarding `N#CC(=C1CCN(C(=O)N2CCC(CO)CC2)CC1)c1cccc(Cl)c1` [Compound 88, 2-(3-chlorophenyl)-2-(1-(4-(hydroxymethyl)piperidine-1-carbonyl)piperidin-4-ylidene)acetonitrile], in experiment [1], the inhibition at 0.5 µM was found to be 99%. Besides, the inhibition at 10 µM in experiment [2] came out at 26%; in experiment [3] it was 13%.

As for `N#CC(=C1CCN(C(=O)N2CCc3nocc3C2)CC1)c1cccc(Cl)c1` [Compound 89, 2-(3-chlorophenyl)-2-(1-(4,5,6,7-tetrahydroisoxazolo[4,3-c]pyridine-5-carbonyl)piperidin-4-ylidene)acetonitrile], the inhibition at 0.5 µM in experiment [1] worked out at 98%. Moreover, the results for the inhibition at 10 µM in experiment [2] and in experiment [3] were 15% and 18%, respectively.

As to `N#CC(=C1CCN(C(=O)N2CCC(C(F)(F)F)CC2)CC1)c1ccc(Cl)cc1` [Compound 90, 2-(4-chlorophenyl)-2-(1-(4-(trifluoromethyl)piperidine-1-carbonyl)piperidin-4-ylidene)acetonitrile], the inhibition at 0.5 µM in experiment [1] came to 99%. The inhibition at 10 µM in experiment [2] was determined as 30%; in experiment [3], 9%.

Take `COC1CCN(C(=O)N2CCC(=C(C#N)c3ccc(F)cc3F)CC2)CC1` [Compound 91, 2-(2,4-difluorophenyl)-2-(1-(4-methoxypiperidine-1-carbonyl)piperidin-4-ylidene)acetonitrile]: the inhibition at 0.5 µM in experiment [1] was determined as 99%. The inhibition at 10 µM in experiment [2] and in experiment [3] was 23% in each case.
